# According to patent EP2149554A1, “Indolyamides as modulators for an EP2 receptor” (Bayer Schering Pharma Aktiengesellschaft, priority 2008, dated 2010):
# Experiments:
# [1] = biological target: T1, EP2-Subtyp des humanen PGE2-Rezeptors (Homo sapiens, UniProt P43116); assay: cAMP antagonism test (HTRF cAMP detection, in presence of PGE2); assay type: cell-based; settings: cAMP Antagonismustest; PGE2 as agonist; read-out: Antagonismus [IC50
# T1 construct: host or cells: cells in a culture plate
# Source text: 1. Nachweis des Antagonismus des humanen Prostaglandin E2 (Subtyp EP2) Rezeptorsignals
# (§1) Die Bindung von PGE2 an den EP2-Subtyp des humanen PGE2-Rezeptors induziert die Aktivierung membranständiger Adenylatzyklasen und führt zur Bildung von cAMP. In Gegenwart des Phosphodiesteraseinhibitors IBMX wird das durch diese Stimulation akkumulierte und mittels Zell-Lyse freigesetzte cAMP in einem kompetitiven Nachweisverfahren eingesetzt. In diesem Test konkurriert das cAMP im Lysat mit cAMP-XL665 um die Bindung eines Eu-Kryptat markierten Anti-cAMP Antikörpers.
# (§2) Dabei entsteht in Abwesenheit von zellulärem cAMP ein maximales Signal, welches auf der Kopplung dieses Antikörpers an das cAMP-XL665 Molekül beruht. Dadurch entsteht nach Anregung bei 337 nm ein auf FRET (fluorescence resonance energy transfer) basierendes, langanhaltendes Emissionssignal bei 665 nm (und bei 620 nm). Beide Signale werden in einem geeigneten Messgerät zeitlich versetzt, d.h. nach Abklingen der Hintergrundsfluoreszenz gemessen. Jegliche Erhöhung des durch Prostglandin-E2-Gabe bedingten niedrigen FRET-Signals (gemessen als Well-Ratio-Veränderung = Emission665nm/Emission620nm * 10000) zeigt die Wirkung von Antagonisten.
# 1.2.1. Test auf Antagonismus (Angaben pro Vertiefung einer 384-Loch-Platte):
# Die in einer Testplatte und 30 % DMSO vorgelegten Substanzlösungen (0.75 µl) wurden in 16 µl einer KRSB+IBMX-Stimulationslösung gelöst (1 X Krebs-Ringer Bicarbonate Buffer; Sigma-Aldrich # K-4002; inklusive 750 µM 3-Isobutyl-1-methylxanthine Sigma-Aldrich # I-7018), anschließend wurden 15 µl davon in eine medienfreie Zellkulturplatte überführt, die kurz zuvor mit KRSB gewaschen worden war.
# Nach einer 30-minütigen Vorinkubation bei Raumtemperatur (RT) wurden 5 µl einer 4xPGE2 Lösung (11 nM) zugegeben und in Gegenwart des Agonisten für weitere 60 min bei RT inkubiert (Volumen: ∼ 20 µl), bevor die Reaktion anschließend durch Zugabe von 5 µl Lysispuffer gestoppt und für weitere 20 min bei RT inkubiert wird (Volumen: ∼ 25 µl). Das Zell-Lysat wurde anschließend in eine Messplatte überführt und entsprechend den Herstellerangaben (cyclic AMP kit Cisbio International # 62AMPPEC) gemessen.
# [2] = biological target: T1, EP2-Subtyp des humanen PGE2-Rezeptors; assay: cellular agonism test (HTRF cAMP detection, without PGE2); assay type: cell-based
# Source text: as §1, §2
# 1.2.2. Test auf Agonismus (Angaben pro Vertiefung einer 384-Loch-Platte): […]
# Kumulus-Eizell Komplexe = assay: cumulus expansion test in vitro; assay type: cell-based, Mäusen (Stamm : CD1 (ICR)); settings: competing with PGE2
# Source text: Im prä-ovulatorischen antralen Follikel ist die Eizelle von Kumulus Zellen umgeben, die einen dichten Zellkranz um die Eizelle bilden. Nach dem LH-Peak (Lutenisierendes Hormon) wird eine Reihe von Prozessen aktiviert, die eine starke morphologische Veränderung dieses Zellkranzes aus Kumulus Zellen zur Folge hat. Hierbei bilden die Kumulus Zellen eine extrazelluläre Matrix, die zur sogenannten Kumulus Expansion führt (Vanderhyden et al. Dev Biol. 1990 Aug;140(2):307-317). Diese Kumulus Expansion ist ein wichtiger Bestandteil des ovulatorischen Prozesses und der nachfolgenden Möglichkeit zur Fertilisation. Bei der Kumulus Expansion sind Prostaglandine und hier das Prostaglandin E2, dessen Synthese durch den LH-Peak induziert wird, von entscheidender Bedeutung. Prostanoid EP2 Knock-out Mäuse (Hizaki et al. Proc Natl Acad Sci U S A. 1999 Aug 31 ;96(18):10501-6.) zeigen eine deutlich verminderte Kumulus Expansion und starke Subfertilität, was die Bedeutung des Prostanoid EP2-Rezeptors für diesen Prozess demonstriert.
# 2.2. Kumulus Expansions Test in vitro
# In immaturen weiblichen Mäusen (Stamm : CD1 (ICR) von Charles River) wurde in einem Alter von 14 - 18 Tagen die Follikulogenese durch eine einmalige Gabe (intraperitoneal) von 10 I.E. PMSG (Pregnant Mare Serum Gonadotropine; Sigma G-4877, Lot 68H0909) induziert. […]
# T1 sequence (P43116 whole entry): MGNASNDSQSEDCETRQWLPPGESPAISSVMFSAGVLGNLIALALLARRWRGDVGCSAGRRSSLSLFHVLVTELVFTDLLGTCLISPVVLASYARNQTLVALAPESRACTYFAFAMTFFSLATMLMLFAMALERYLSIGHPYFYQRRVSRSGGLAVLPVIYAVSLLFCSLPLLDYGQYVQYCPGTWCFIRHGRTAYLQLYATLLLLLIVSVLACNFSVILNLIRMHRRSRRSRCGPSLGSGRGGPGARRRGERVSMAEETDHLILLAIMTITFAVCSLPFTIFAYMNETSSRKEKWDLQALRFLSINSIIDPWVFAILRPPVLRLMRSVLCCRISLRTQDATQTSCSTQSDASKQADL
Structure (SMILES),IC50 [1],Wirkung im zellulären Agonismustest [2],Unterdrückung der Kumulus Expansion (Kumulus-Eizell Komplexe; 5 µM),Unterdrückung der Kumulus Expansion (Kumulus-Eizell Komplexe; 100 - 200 µM)
"Cc1[nH]c2c(F)ccc(C)c2c1CCNC(=O)c1cc2ccc(C(=O)NCC(N)=O)cc2[nH]1 [Beispiel 6, 1H-Indol-2,6-dicarbonsäure 6-carbamoylmethyl-amid 2-{[2-(7-fluor-2,4-dimethyl-1H-indol-3-yl)-ethyl]-amid}]",22 nM,keine Inhibition,ca. 67%,–
"CC(C)Oc1ccc2c(=O)c3cc(C(=O)O)ccc3oc2c1 [AH 6809, reference compound]",–,–,–,ca. 30%

# More lines, main results first:
IC50 [1],Structure (SMILES),Wirkung im zellulären Agonismustest [2],Unterdrückung der Kumulus Expansion (Kumulus-Eizell Komplexe; 5 µM),Unterdrückung der Kumulus Expansion (Kumulus-Eizell Komplexe; 100 - 200 µM)
297 nM,"Cc1[nH]c2c(F)ccc(C)c2c1CCNC(=O)c1cc2cc(C(=O)NCCC(N)=O)ccc2[nH]1 [Beispiel 5, 1H-Indol-2,5-dicarbonsäure 5-[(2-carbamoyl-ethyl)-amid] 2-{[2-(7-fluor-2,4-dimethyl-1H-indol-3-yl)-ethyl]-amid}]",–,–,–
122 nM,"Cc1[nH]c2c(F)ccc(C)c2c1CCNC(=O)c1cc2ccc(C(=O)NCC(C)(C)CO)cc2[nH]1 [Beispiel 8, 1H-Indol-2,6-dicarbonsäure 2-{[2-(7-fluor-2,4-dimethyl-1H-indol-3-yl)-ethyl]-amid} 6-[(3-hydroxy-2,2-dimethyl-propyl)-amid]]",–,–,–
46 nM,"Cc1[nH]c2c(F)ccc(C)c2c1CCNC(=O)c1cc2ccc(C(=O)NCCC(N)=O)cc2[nH]1 [Beispiel 10, 1H-Indol-2,6-dicarbonsäure 6-[(2-carbamoyl-ethyl)-amid] 2-{[2-(7-fluor-2,4-dimethyl-1H-indol-3-yl)-ethyl]-amid}]",–,–,–
